The supplement of paper PMC10307832

What was measured:
Assay in all cases: relative viability (nuclei count vs DMSO), 5 days (fraction); higher = more cells survive
[1] = test system: NCI-H3122
In short: (§1)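 For relative viability, nuclei counts in treated wells were divided by those in vehicle wells. Lung cancer cell lines had been pin-tool dosed in 1536-well plates the day after seeding and cultured for 5 days, then fixed and stained in one step (final 0.05% Triton X-100, 1% formaldehyde, 1 ug/ml Hoechst) and imaged at 4×. Doses were one drug alone or a fixed anchor-drug dose plus five library-drug doses (not always all listed) in √10 steps, and values are duplicate-plate medians.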

[2] = test system: NCI-H596
In short: as §1

[3] = test system: PC-3 [JPC-3]
In short: as §1

[4] = test system: LK-2
In short: as §1

[5] = test system: NCI-H2228
In short: as §1

[6] = test system: NCI-H1944
In short: as §1

[7] = test system: NCI-H2009
In short: as §1

[8] = test system: LXF-289
In short: as §1

[9] = test system: HOP-62
In short: as §1

[10] = test system: SK-MES-1
In short: as §1

[11] = test system: NCI-H727
In short: as §1

[12] = test system: NCI-H1993
In short: as §1

[13] = test system: NCI-H322M
In short: as §1

[14] = test system: SW 1573
In short: as §1

[15] = test system: HARA
In short: as §1

[16] = test system: ABC-1
In short: as §1

[17] = test system: NCI-H1792
In short: as §1

[18] = test system: A-427
In short: as §1

[19] = test system: EMC-BAC-2
In short: as §1

Work on `Cc1sc2c(c1C)C(c1ccc(Cl)cc1)=N[C@@H](CC(=O)OC(C)(C)C)c1nnc(C)n1-2` [JQ1] + C[C@]1(O)C[C@@H](c2nc(-c3ccc4ccc(-c5ccccc5)nc4c3)c3c(N)nccn32)C1 [Linsitinib] (partner 1 µM) yielded a relative viability ([1]; first compound 0.04 µM) of 0.966, a relative viability ([1]; first compound 0.1265 µM) of 0.931 and a relative viability ([1]; first compound 0.4 µM) of 0.97. It also gave a relative viability ([1]; first compound 1.265 µM) of 0.757, a relative viability ([1]; first compound 4 µM) of 0.625 and a relative viability ([2]; first compound 0.04 µM) of 1.22. It also gave a relative viability ([2]; first compound 0.1265 µM) of 1.03, a relative viability ([2]; first compound 0.4 µM) of 0.587 and a relative viability ([2]; first compound 1.265 µM) of 0.418. The relative viability ([2]; first compound 4 µM) was 0.361, the relative viability ([3]; first compound 0.04 µM) was 0.942 and the relative viability ([3]; first compound 0.1265 µM) was 0.998. It also gave a relative viability ([3]; first compound 0.4 µM) of 1.06, a relative viability ([3]; first compound 1.265 µM) of 0.79 and a relative viability ([3]; first compound 4 µM) of 0.666. It also gave a relative viability ([4]; first compound 0.04 µM) of 0.393, a relative viability ([4]; first compound 0.1265 µM) of 0.662 and a relative viability ([4]; first compound 0.4 µM) of 0.233. For the same compound, the relative viability ([4]; first compound 1.265 µM) was 0.176, the relative viability ([4]; first compound 4 µM) was 0.109 and the relative viability ([5]; first compound 0.04 µM) was 1. The relative viability ([5]; first compound 0.1265 µM) was 0.743, the relative viability ([5]; first compound 0.4 µM) was 0.688 and the relative viability ([5]; first compound 1.265 µM) was 0.404. For the same compound, the relative viability ([5]; first compound 4 µM) was 0.357, the relative viability ([6]; first compound 0.04 µM) was 1.15 and the relative viability ([6]; first compound 0.1265 µM) was 0.874. The relative viability ([6]; first compound 0.4 µM) was 0.922, the relative viability ([6]; first compound 1.265 µM) was 0.623 and the relative viability ([6]; first compound 4 µM) was 0.557. It also gave a relative viability ([7]; first compound 0.04 µM) of 1.13, a relative viability ([7]; first compound 0.1265 µM) of 0.995 and a relative viability ([7]; first compound 0.4 µM) of 0.724. The relative viability ([7]; first compound 1.265 µM) was 0.279, the relative viability ([7]; first compound 4 µM) was 0.263 and the relative viability ([8]; first compound 0.04 µM) was 0.986. For the same compound, the relative viability ([8]; first compound 0.1265 µM) was 0.968, the relative viability ([8]; first compound 0.4 µM) was 0.903 and the relative viability ([8]; first compound 1.265 µM) was 0.761. For the same compound, the relative viability ([8]; first compound 4 µM) was 0.34, the relative viability ([9]; first compound 0.04 µM) was 1.01 and the relative viability ([9]; first compound 0.1265 µM) was 0.869. It also gave a relative viability ([9]; first compound 0.4 µM) of 0.694, a relative viability ([9]; first compound 1.265 µM) of 0.11 and a relative viability ([9]; first compound 4 µM) of 0.106. It also gave a relative viability ([10]; first compound 0.04 µM) of 1.02, a relative viability ([10]; first compound 0.1265 µM) of 0.752 and a relative viability ([10]; first compound 0.4 µM) of 0.862. It also gave a relative viability ([10]; first compound 1.265 µM) of 0.332, a relative viability ([10]; first compound 4 µM) of 0.374 and a relative viability ([11]; first compound 0.04 µM) of 0.374. For the same compound, the relative viability ([11]; first compound 0.1265 µM) was 0.313, the relative viability ([11]; first compound 0.4 µM) was 0.343 and the relative viability ([11]; first compound 1.265 µM) was 0.244. The relative viability ([11]; first compound 4 µM) was 0.234, the relative viability ([12]; first compound 0.04 µM) was 0.729 and the relative viability ([12]; first compound 0.1265 µM) was 0.855. The relative viability ([12]; first compound 0.4 µM) was 0.809, the relative viability ([12]; first compound 1.265 µM) was 0.829 and the relative viability ([12]; first compound 4 µM) was 0.736. For the same compound, the relative viability ([13]; first compound 0.04 µM) was 0.546, the relative viability ([13]; first compound 0.1265 µM) was 0.935 and the relative viability ([13]; first compound 0.4 µM) was 0.874. The relative viability ([13]; first compound 1.265 µM) was 0.474, the relative viability ([13]; first compound 4 µM) was 0.462 and the relative viability ([14]; first compound 0.04 µM) was 0.697. For the same compound, the relative viability ([14]; first compound 0.1265 µM) was 0.789, the relative viability ([14]; first compound 0.4 µM) was 0.711 and the relative viability ([14]; first compound 1.265 µM) was 0.339. For the same compound, the relative viability ([14]; first compound 4 µM) was 0.323, the relative viability ([15]; first compound 0.04 µM) was 0.902 and the relative viability ([15]; first compound 0.1265 µM) was 0.624. For the same compound, the relative viability ([15]; first compound 0.4 µM) was 0.399, the relative viability ([15]; first compound 1.265 µM) was 0.205 and the relative viability ([15]; first compound 4 µM) was 0.163. The relative viability ([16]; first compound 0.04 µM) was 0.716, the relative viability ([16]; first compound 0.1265 µM) was 0.772 and the relative viability ([16]; first compound 0.4 µM) was 0.564. The relative viability ([16]; first compound 1.265 µM) was 0.356, the relative viability ([16]; first compound 4 µM) was 0.275 and the relative viability ([17]; first compound 0.04 µM) was 0.587. For the same compound, the relative viability ([17]; first compound 0.4 µM) was 0.569, the relative viability ([17]; first compound 1.265 µM) was 0.31 and the relative viability ([17]; first compound 4 µM) was 0.274. For the same compound, the relative viability ([18]; first compound 0.04 µM) was 1.19, the relative viability ([18]; first compound 0.1265 µM) was 1.04 and the relative viability ([18]; first compound 0.4 µM) was 1.14. It also gave a relative viability ([18]; first compound 1.265 µM) of 1.06, a relative viability ([18]; first compound 4 µM) of 0.721 and a relative viability ([19]; first compound 0.04 µM) of 0.815. For the same compound, the relative viability ([19]; first compound 0.1265 µM) was 0.812, the relative viability ([19]; first compound 0.4 µM) was 0.659 and the relative viability ([19]; first compound 1.265 µM) was 0.444. It also gave a relative viability ([19]; first compound 4 µM) of 0.47.
